Results taken from PubChem BioAssay AID248 (DTP/NCI, 2004).
Where “and” joins values, the source holds several entries; their conditions need not be identical. Equal values may be shown once. Toxic doses and inconclusive results are not listed. Cut-off read from the data, not from the text of the source: active = T/C of 150% or more; inactive = T/C below 125%.

Test system: L1210 leukemia ip in BDF1 mice, survival T/C
Test: NCI In Vivo Anticancer Drug Screen. Data for tumor model L1210 Leukemia (intraperitoneal) in B6D2F1 (BDF1) mice
Settings: endpoint: mean survival time, higher = longer survival
Method in brief: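 Ratio derived from survival: compound-dosed mice over vehicle-dosed mice, all bearing a transplantable tumor.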

[1] = dose: 100.0 mg/kg/injection, schedule: Q01DX009 (ip), vehicle: saline with Tween-80
[2] = dose: 100.0 mg/kg/injection, schedule: Q04DX003 (ip), vehicle: saline with Tween-80
[3] = dose: 200.0 mg/kg/injection, schedule: Q01DX009 (ip), vehicle: saline with Tween-80
[4] = dose: 200.0 mg/kg/injection, schedule: Q04DX003 (ip), vehicle: saline with Tween-80
[5] = dose: 400.0 mg/kg/injection, schedule: Q01DX009 (ip), vehicle: saline with Tween-80
[6] = dose: 400.0 mg/kg/injection, schedule: Q04DX003 (ip), vehicle: saline with Tween-80
[7] = dose: 100.0 mg/kg/injection, schedule: Q04DX002 (ip), vehicle: saline with Tween-80
[8] = dose: 200.0 mg/kg/injection, schedule: Q04DX002 (ip), vehicle: saline with Tween-80
[9] = dose: 12.5 mg/kg/injection, schedule: Q01DX009 (ip), vehicle: saline with Tween-80
[10] = dose: 25.0 mg/kg/injection, schedule: Q04DX003 (ip), vehicle: saline with Tween-80
[11] = dose: 100.0 mg/kg/injection, schedule: Q04DX003 (ip), vehicle: Klucel (hydroxypropylcellulose) (HPC)
[12] = dose: 200.0 mg/kg/injection, schedule: Q04DX003 (ip), vehicle: Klucel (hydroxypropylcellulose) (HPC)
[13] = dose: 400.0 mg/kg/injection, schedule: Q04DX003 (ip), vehicle: Klucel (hydroxypropylcellulose) (HPC)
[14] = dose: 100.0 mg/kg/injection, schedule: Q04DX002 (ip), vehicle: saline
[15] = dose: 200.0 mg/kg/injection, schedule: Q04DX002 (ip), vehicle: saline
[16] = dose: 400.0 mg/kg/injection, schedule: Q04DX002 (ip), vehicle: saline with Tween-80
[17] = dose: 10.0 mg/kg/injection, schedule: Q01DX001 (ip), vehicle: saline
[18] = dose: 20.0 mg/kg/injection, schedule: Q01DX001 (ip), vehicle: saline
[19] = dose: 40.0 mg/kg/injection, schedule: Q01DX001 (ip), vehicle: saline
[20] = dose: 100.0 mg/kg/injection, schedule: Q04DX003 (ip), vehicle: saline
[21] = dose: 200.0 mg/kg/injection, schedule: Q04DX003 (ip), vehicle: saline
[22] = dose: 400.0 mg/kg/injection, schedule: Q04DX003 (ip), vehicle: saline

Measured: T/C

O=C(NO)Nc1ccccc1
inactive: dose: 50.0 mg/kg/injection, schedule: Q01DX Z (ip), vehicle: carboxymethylcellulose (CMC) 94 % of control | [1] 98 % of control | dose: 100.0 mg/kg/injection, schedule: Q01DX Z (ip), vehicle: carboxymethylcellulose (CMC) 95 % of control | [2] 95 % of control | dose: 150.0 mg/kg/injection, schedule: Q01DX Z (ip), vehicle: methylcellulose (MC) 112 % of control | [3] 109 % of control | [4] 96 % of control | dose: 230.0 mg/kg/injection, schedule: Q01DX Z (ip), vehicle: methylcellulose (MC) 97 % of control | [5] 98 % of control | [6] 106 % of control

Cc1ccc(NSC(Cl)(Cl)Cl)cc1
inactive: dose: 50.0 mg/kg/injection, schedule: Q04DX002 (ip), vehicle: saline with Tween-80 101 % of control | [7] 106 % of control and 108 % of control | [8] 98 % of control and 123 % of control

Cc1nc(N)c(N)nc1C
inactive: [9] 112 % of control | dose: 25.0 mg/kg/injection, schedule: Q01DX009 (ip), vehicle: saline with Tween-80 101 % of control | [10] 106 % of control | dose: 50.0 mg/kg/injection, schedule: Q01DX009 (ip), vehicle: saline with Tween-80 101 % of control | dose: 50.0 mg/kg/injection, schedule: Q04DX003 (ip), vehicle: saline with Tween-80 101 % of control

Cc1cc(O)ccc1SC#N
inactive: dose: 3.12 mg/kg/injection, schedule: Q04DX003 (ip), vehicle: saline + alcohol 97 % of control | dose: 6.25 mg/kg/injection, schedule: Q04DX003 (ip), vehicle: saline + alcohol 101 % of control | dose: 12.5 mg/kg/injection, schedule: Q04DX003 (ip), vehicle: saline + alcohol 101 % of control

O=[N+]([O-])c1ccccc1N1CCCCC1
inactive: [11] 97 % of control | [12] 89 % of control | [13] 109 % of control

CCN(CC)CCCC(C)Nc1ccc(O)c2c1C(=O)c1ccccc1C2=O (configuration not stated)
inactive: dose: 25.0 mg/kg/injection, schedule: Q01DX009 (ip), vehicle: saline 100 % of control | dose: 50.0 mg/kg/injection, schedule: Q01DX009 (ip), vehicle: saline 93 % of control | dose: 100.0 mg/kg/injection, schedule: Q01DX009 (ip), vehicle: saline 104 % of control | [14] 100 % of control | [15] 102 % of control

O=C(NCCCl)Nc1ccccc1
inactive: dose: 100.0 mg/kg/injection, schedule: Q01DX001 (ip), vehicle: Klucel (hydroxypropylcellulose) (HPC) 93 % of control | [11] 122 % of control | dose: 200.0 mg/kg/injection, schedule: Q01DX001 (ip), vehicle: Klucel (hydroxypropylcellulose) (HPC) 101 % of control | [12] 104 % of control

CCc1ccc2c(-c3ccccc3)ccc3c2c1C(=O)c1ccccc1-3
inactive: [7] 94 % of control | [8] 88 % of control | [16] 91 % of control

CN1CC(C(=O)NCc2ccccc2)CC2c3cccc4[nH]cc(c34)CC21 (configuration not stated)
inactive: dose: 25.0 mg/kg/injection, schedule: Q04DX003 (ip), vehicle: Klucel (hydroxypropylcellulose) (HPC) 96 % of control | dose: 50.0 mg/kg/injection, schedule: Q04DX003 (ip), vehicle: Klucel (hydroxypropylcellulose) (HPC) 91 % of control | [11] 96 % of control | [12] 89 % of control | [13] 91 % of control

Cc1ccc(Nc2n[nH]c(=S)s2)cc1C
inactive: [1] 93 % of control | [3] 92 % of control | [5] 106 % of control

Cn1ncc2[nH]c(=O)n(O)c(=O)c21
inactive: dose: 50.0 mg/kg/injection, schedule: Q01DX001 (ip), vehicle: saline 93 % of control | dose: 100.0 mg/kg/injection, schedule: Q01DX001 (ip), vehicle: saline 96 % of control | dose: 200.0 mg/kg/injection, schedule: Q01DX001 (ip), vehicle: saline 100 % of control | dose: 400.0 mg/kg/injection, schedule: Q01DX001 (ip), vehicle: saline 100 % of control

Cc1cc(N(CCCl)CCCl)ccc1C=Nc1ccccc1-n1ccnc1C
inactive: dose: 75.0 mg/kg/injection, schedule: Q04DX002 (ip), vehicle: Klucel (hydroxypropylcellulose) (HPC) 98 % of control | dose: 150.0 mg/kg/injection, schedule: Q04DX002 (ip), vehicle: Klucel (hydroxypropylcellulose) (HPC) 98 % of control | dose: 300.0 mg/kg/injection, schedule: Q04DX002 (ip), vehicle: Klucel (hydroxypropylcellulose) (HPC) 98 % of control

CC(=O)N(C(C)=O)N(C(C)=O)C(=O)c1ccccn1
inactive: dose: 100.0 mg/kg/injection, schedule: Q01DX001 (ip), vehicle: water 106 % of control | dose: 200.0 mg/kg/injection, schedule: Q01DX001 (ip), vehicle: water 101 % of control | dose: 400.0 mg/kg/injection, schedule: Q01DX001 (ip), vehicle: water 106 % of control

Cc1ccc(S(=O)(=O)OC/C(=C(/c2ccccc2)c2ccc(Cl)cc2)c2ccccc2)cc1
inactive: dose: 6.25 mg/kg/injection, schedule: Q04DX003 (ip), vehicle: saline with Tween-80 96 % of control | dose: 12.5 mg/kg/injection, schedule: Q04DX003 (ip), vehicle: saline with Tween-80 98 % of control | [10] 95 % of control

CC(C)CCS(=O)CCC(C)C
inactive: [1] 96 % of control | [2] 105 % of control | [3] 96 % of control | [4] 120 % of control | [5] 100 % of control | [6] 97 % of control

ON=C1C2CC3CC(C2)CC1C3
inactive: dose: 75.0 mg/kg/injection, schedule: Q01DX001 (ip), vehicle: other 96 % of control | dose: 150.0 mg/kg/injection, schedule: Q01DX001 (ip), vehicle: other 94 % of control | dose: 300.0 mg/kg/injection, schedule: Q01DX001 (ip), vehicle: other 93 % of control

CCC(C#N)N1CC1 (configuration not stated)
inactive: dose: 15.0 mg/kg/injection, schedule: Q01DX001 (ip), vehicle: saline 94 % of control | dose: 30.0 mg/kg/injection, schedule: Q01DX001 (ip), vehicle: saline 104 % of control

Cc1cc(CSC(=N)N)c(CSC(=N)N)cc1C
inactive: [17] 97 % of control | [18] 94 % of control | [19] 94 % of control

c1ccc2c(c1)ccc1c(C3CO3)cccc12 (configuration not stated)
inactive: [7] 101 % of control | [8] 98 % of control | [16] 88 % of control

O=[N+]([O-])c1ccc2[nH]c(=S)[nH]c2c1
inactive: [20] 98 % of control | [21] 103 % of control | [22] 95 % of control

O=c1cc(CBr)c2ccccc2[nH]1
inactive: dose: 5.0 mg/kg/injection, schedule: Q01DX001 (ip), vehicle: saline 100 % of control | dose: 6.25 mg/kg/injection, schedule: Q01DX009 (ip), vehicle: saline with Tween-80 105 % of control | [17] 94 % of control | [9] 90 % of control | [18] 100 % of control | [19] 103 % of control | dose: 80.0 mg/kg/injection, schedule: Q01DX001 (ip), vehicle: saline 97 % of control

O=C1c2ccccc2C(=O)N1OCc1ccc(CON2C(=O)c3ccccc3C2=O)cc1
inactive: [20] 101 % of control | [21] 95 % of control | [22] 95 % of control

C/C(=N/NC(N)=S)c1ccc(F)cc1
inactive: dose: 9.38 mg/kg/injection, schedule: Q01DX009 (ip), vehicle: Klucel (hydroxypropylcellulose) (HPC) 95 % of control | dose: 18.75 mg/kg/injection, schedule: Q01DX009 (ip), vehicle: Klucel (hydroxypropylcellulose) (HPC) 92 % of control

CC(=O)OCC(C)(C)c1ccccc1
inactive: [14] 105 % of control | [15] 97 % of control | dose: 400.0 mg/kg/injection, schedule: Q04DX002 (ip), vehicle: saline 105 % of control
